Bridge positions count the residues as written; N and C are the ends. Peptide text beside a SMILES is read from it.
Key:
[1] = storage for 3 months; 40° C. and 75% relative humidity; from U.S. Pat. No. 8,222,201, Example 3, Table 13; cited from earlier work
[2] = Stability test of solid Linaclotide forms, storage in sealed HDPE bottles at 40° C. and 75% relative humidity, hydrolysis product content; format: physicochemical; conditions: sealed 45 cc. HDPE bottles
Protocol: Linaclotide Form III according to the present invention was subjected to a stability test in accordance with U.S. Pat. No. 8,222,201, Example 3 (storage in sealed 45 cc. high density polyethylene bottles at 40° C. and 75% relative humidity).

[3] = Stability of Linaclotide solutions with and without ethanol, % multimers by HPLC-SEC; format: physicochemical; conditions: RT, sealed vials
Protocol: Solutions of Linaclotide in: (A): a 1:1 mixture of 0.2% AcOH: ACN or (B): a 1:1:9.5 mixture of 0.2% AcOH:ACN:EtOH, were stored for 12 days at room temperature (RT) in sealed vials. The solutions were analysed by (HPLC-size exclusion chromatography) (HPLC-SEC), for % multimers (the major degradants present) content (see table below):
The results are graphically represented in FIG. 6.

In the case of `C[C@@H]1NC(=O)[C@@H]2CCCN2C(=O)[C@H](CC(N)=O)NC(=O)[C@@H]2CSSC[C@H](N)C(=O)N[C@H]3CSSC[C@H](NC1=O)C(=O)N[C@@H]([C@@H](C)O)C(=O)NCC(=O)N[C@H](C(=O)N[C@@H](Cc1ccc(O)cc1)C(=O)O)CSSC[C@H](NC(=O)[C@H](Cc1ccc(O)cc1)NC(=O)[C@H](CCC(=O)O)NC3=O)C(=O)N2` [Form alpha, Linaclotide] (H-CCEYCCNPACTGCY-OH; disulfide 1-6, 2-10, 5-13), the “hydrolysis product (L-Asp Linaclotide impurity) content” value [1] is given as 5.7 wt %.
In the case of `C[C@@H]1NC(=O)[C@@H]2CCCN2C(=O)[C@H](CC(N)=O)NC(=O)[C@@H]2CSSC[C@H](N)C(=O)N[C@H]3CSSC[C@H](NC1=O)C(=O)N[C@@H]([C@@H](C)O)C(=O)NCC(=O)N[C@H](C(=O)N[C@@H](Cc1ccc(O)cc1)C(=O)O)CSSC[C@H](NC(=O)[C@H](Cc1ccc(O)cc1)NC(=O)[C@H](CCC(=O)O)NC3=O)C(=O)N2` [Linaclotide Form III, Linaclotide] (H-CCEYCCNPACTGCY-OH; disulfide 1-6, 2-10, 5-13), the “Linaclotide hydrolysis product (L-Asp Linaclotide impurity) content” value ([2]; after 4 weeks) is reported as 0.22% and the “Linaclotide hydrolysis product (L-Asp Linaclotide impurity) content” value ([2]; extrapolated to 3 months) is reported as 0.45 wt %.
In the case of `C[C@@H]1NC(=O)[C@@H]2CCCN2C(=O)[C@H](CC(N)=O)NC(=O)[C@@H]2CSSC[C@H](N)C(=O)N[C@H]3CSSC[C@H](NC1=O)C(=O)N[C@@H]([C@@H](C)O)C(=O)NCC(=O)N[C@H](C(=O)N[C@@H](Cc1ccc(O)cc1)C(=O)O)CSSC[C@H](NC(=O)[C@H](Cc1ccc(O)cc1)NC(=O)[C@H](CCC(=O)O)NC3=O)C(=O)N2` [Linaclotide] (H-CCEYCCNPACTGCY-OH; disulfide 1-6, 2-10, 5-13), the “% Multimers according to HPLC-SEC method” value ([3]; solution (A) without EtOH: 1:1 0.2% AcOH:ACN, Day 0) is reported as 1.72%, the “% Multimers according to HPLC-SEC method” value ([3]; solution (A) without EtOH: 1:1 0.2% AcOH:ACN, Day 1) is reported as 1.87% and the “% Multimers according to HPLC-SEC method” value ([3]; solution (A) without EtOH: 1:1 0.2% AcOH:ACN, Day 2) is reported as 1.70%. The “% Multimers according to HPLC-SEC method” value ([3]; solution (A) without EtOH: 1:1 0.2% AcOH:ACN, Day 5) was 3.05%, the “% Multimers according to HPLC-SEC method” value ([3]; solution (A) without EtOH: 1:1 0.2% AcOH:ACN, Day 6) was 3.75% and the “% Multimers according to HPLC-SEC method” value ([3]; solution (A) without EtOH: 1:1 0.2% AcOH:ACN, Day 7) was 3.83%. The “% Multimers according to HPLC-SEC method” value ([3]; solution (A) without EtOH: 1:1 0.2% AcOH:ACN, Day 8) was 4.61%, the “% Multimers according to HPLC-SEC method” value ([3]; solution (A) without EtOH: 1:1 0.2% AcOH:ACN, Day 11) was 6.47% and the “% Multimers according to HPLC-SEC method” value ([3]; solution (A) without EtOH: 1:1 0.2% AcOH:ACN, Day 12) was 7.18%. The “% Multimers according to HPLC-SEC method” value ([3]; solution (B) with EtOH: 1:1:9.5 0.2% AcOH:ACN:EtOH, Day 0) was 1.54%, the “% Multimers according to HPLC-SEC method” value ([3]; solution (B) with EtOH: 1:1:9.5 0.2% AcOH:ACN:EtOH, Day 1) was 1.66% and the “% Multimers according to HPLC-SEC method” value ([3]; solution (B) with EtOH: 1:1:9.5 0.2% AcOH:ACN:EtOH, Day 2) was 2.17%. For the same molecule, the “% Multimers according to HPLC-SEC method” value ([3]; solution (B) with EtOH: 1:1:9.5 0.2% AcOH:ACN:EtOH, Day 5) was 2.34%, the “% Multimers according to HPLC-SEC method” value ([3]; solution (B) with EtOH: 1:1:9.5 0.2% AcOH:ACN:EtOH, Day 6) was 3.22% and the “% Multimers according to HPLC-SEC method” value ([3]; solution (B) with EtOH: 1:1:9.5 0.2% AcOH:ACN:EtOH, Day 7) was 3.54%. The “% Multimers according to HPLC-SEC method” value ([3]; solution (B) with EtOH: 1:1:9.5 0.2% AcOH:ACN:EtOH, Day 8) was 3.64%, the “% Multimers according to HPLC-SEC method” value ([3]; solution (B) with EtOH: 1:1:9.5 0.2% AcOH:ACN:EtOH, Day 11) was 3.62% and the “% Multimers according to HPLC-SEC method” value ([3]; solution (B) with EtOH: 1:1:9.5 0.2% AcOH:ACN:EtOH, Day 12) was 4.88%.

From patent publication US10889620B2, “Solid state forms of linaclotide” (NOVETIDE LTD., priority 2015, dated 2021)
